# Source: ChEMBL document CHEMBL5357027, “Annonaceous Acetogenins Synergistically Inhibit Hepatocellular Carcinoma with Sorafenib” (J Nat Prod, 2024)
# Active and inactive are the calls of the source. The rule behind the calls is not given here.
# Experiments:
# HCCLM3 [1] = assay: Induction of apoptosis in human HCCLM3 cells assessed as early apoptotic cells at 4 uM incubated for 48 hrs by Annexin V/FITC-PI staining based flow cytometry (reference value: 0.05%); format: functional
# HCCLM3 [2] = assay: Induction of apoptosis in human HCCLM3 cells assessed as viable cells at 4 uM incubated for 48 hrs by Annexin V/FITC-PI staining based flow cytometry (reference value: 96.55%); format: functional; settings: read-out: Activity
# MHCC97H [3] = assay: Inhibition of mitochondrial function in human MHCC97H cells assessed as reduction in ATP production at 16 uM incubated for 48 hrs relative to control; format: functional; design: scale not given: the % may be the effect or the level left
# HCCLM3 [4] = assay: Induction of apoptosis in human HCCLM3 cells assessed as necrotic cells at 4 uM incubated for 48 hrs by Annexin V/FITC-PI staining based flow cytometry (reference value: 3.33%); format: functional
# Huh-7 [5] = assay: Inhibition of mitochondrial function in human Huh-7 cells assessed as reduction in ATP production at 16 uM incubated for 48 hrs relative to control; format: functional; design: scale not given: the % may be the effect or the level left
# HepG2 [6] = assay: Inhibition of mitochondrial function in human HepG2 cells assessed as reduction in ATP production at 16 uM incubated for 48 hrs relative to control; format: functional; design: scale not given: the % may be the effect or the level left
# HCCLM3 [7] = assay: Induction of apoptosis in human HCCLM3 cells assessed as late apoptotic cells at 4 uM incubated for 48 hrs by Annexin V/FITC-PI staining based flow cytometry (reference value: 0.07%); format: functional
# HCCLM3 [8] = assay: Inhibition of mitochondrial function in human HCCLM3 cells assessed as reduction in ATP production at 16 uM incubated for 48 hrs relative to control; format: functional; design: scale not given: the % may be the effect or the level left
# HCCLM3 [9] = assay: Inhibition of mitochondrial respiratory chain complex I in human HCCLM3 incubated for 24 hrs; format: cell-based
# MHCC97H [10] = assay: Synergistic cytotoxicity against human MHCC97H cells assessed as cell growth inhibition by measuring synergy score at 1 to 16 uM incubated for 48 hrs in presence of sorafenib at 1 to 16 uM by MTT assay; format: functional; settings: dose 1-16 µM
# MHCC97H [11] = assay: Cytotoxicity against human MHCC97H cells assessed as cell growth inhibition incubated for 48 hrs by MTT assay; format: functional, cell-based
# Huh-7 [12] = assay: Cytotoxicity against human Huh-7 cells assessed as cell growth inhibition incubated for 48 hrs by MTT assay; format: functional, cell-based; settings: Huh-7, 48 h
# Huh-7 [13] = assay: Synergistic cytotoxicity against human Huh-7 cells assessed as cell growth inhibition by measuring synergy score at 1 to 16 uM incubated for 48 hrs in presence of sorafenib at 1 to 16 uM by MTT assay; format: functional; settings: dose 1-16 µM
# HCCLM3 [14] = assay: Cytotoxicity against human HCCLM3 cells assessed as cell growth inhibition incubated for 48 hrs by MTT assay; format: functional, cell-based; settings: HCCLM3, 48 h
# HCCLM3 [15] = assay: Synergistic cytotoxicity against human HCCLM3 cells assessed as cell growth inhibition by measuring synergy score at 1 to 16 uM incubated for 48 hrs in presence of sorafenib at 1 to 16 uM by MTT assay; format: functional; settings: dose 1-16 µM
# HepG2 [16] = assay: Cytotoxicity against human HepG2 cells assessed as cell growth inhibition incubated for 48 hrs by MTT assay; format: functional, cell-based; settings: HepG2, 48 h
# HepG2 [17] = assay: Synergistic cytotoxicity against human HepG2 cells assessed as cell growth inhibition by measuring synergy score at 1 to 16 uM incubated for 48 hrs in presence of sorafenib at 1 to 16 uM by MTT assay; format: functional; settings: dose 1-16 µM
Structure (SMILES),Activity (HCCLM3 [1]) [%],viability at 4 µM (HCCLM3 [2]) [%],Activity (MHCC97H [3]) [%],Activity (HCCLM3 [4]) [%],Activity (Huh-7 [5]) [%],Activity (HepG2 [6]) [%],Activity (HCCLM3 [7]) [%],Activity (HCCLM3 [8]) [%],inhibition (HCCLM3 [9]),Activity (MHCC97H [10]),IC50 (MHCC97H [11]) [µM],IC50 (Huh-7 [12]) [µM],Activity (Huh-7 [13]),IC50 (HCCLM3 [14]) [µM],Activity (HCCLM3 [15]),IC50 (HepG2 [16]) [µM],Activity (HepG2 [17])
CNC(=O)c1cc(Oc2ccc(NC(=O)Nc3ccc(Cl)c(C(F)(F)F)c3)cc2)ccn1 [SORAFENIB],3.59,94.2,54.4,1.57,41.1,69.5,0.67,77.4,,,,,,,,,
CCCCCCCCCC[C@@H](O)[C@H](O)C[C@@H](O)[C@H]1CC[C@H](CCCCCCCCCC[C@@H](O)CC2=C[C@H](C)OC2=O)O1,,,,,,,,,Active,2.7,> 50,> 50,2.7,> 50,2.7,> 50,2.7
CCCCCCCCCCCC[C@H](O)[C@@H]1CC[C@H]([C@H](O)CCCC[C@@H](O)CCCCC[C@@H](O)CC2=C[C@H](C)OC2=O)O1,,,,,,,,,Active,2.3,7.1,7.1,2.3,7.1,2.3,7.1,2.3
CCCCCCCCCCCC[C@@H](O)[C@H]1CC[C@H]([C@H](O)CCCC(O)CCCCCC[C@@H](O)CC2=C[C@H](C)OC2=O)O1 (stereo not given in full),,,,,,,,,Active,2,10,10,2,10,2,10,2
